IC50 data for one compound are collected here from patent US9718788B2, “Heteroaryl compounds useful as inhibitors of E1 activating enzymes” (MILLENNIUM PHARMACEUTICALS, INC., priority 2006, dated 2017).

Broadly, the IC50 is the midpoint of a concentration-inhibition curve.

The assay concerns the target T1, recombinant human NAE enzyme (Homo sapiens, UniProt Q8TBC4).
T1 construct: His (N); made in house; host or cells: Sf9 insect cells (baculovirus, Bac-to-Bac)
T1 sequence (Q8TBC4 1-463): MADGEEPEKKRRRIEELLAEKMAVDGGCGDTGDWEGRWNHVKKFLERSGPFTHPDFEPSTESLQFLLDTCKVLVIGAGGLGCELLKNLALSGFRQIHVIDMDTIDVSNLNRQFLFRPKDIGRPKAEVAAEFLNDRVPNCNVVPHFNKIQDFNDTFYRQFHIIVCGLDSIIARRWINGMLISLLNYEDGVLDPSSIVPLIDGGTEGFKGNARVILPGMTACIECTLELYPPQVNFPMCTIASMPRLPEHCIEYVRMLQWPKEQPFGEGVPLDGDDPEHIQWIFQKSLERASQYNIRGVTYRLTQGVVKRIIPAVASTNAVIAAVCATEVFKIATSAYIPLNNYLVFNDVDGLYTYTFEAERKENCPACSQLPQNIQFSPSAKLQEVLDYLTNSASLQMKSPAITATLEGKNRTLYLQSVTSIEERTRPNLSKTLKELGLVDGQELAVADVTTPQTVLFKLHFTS
T1 sequence (Q13564 1-534 partner): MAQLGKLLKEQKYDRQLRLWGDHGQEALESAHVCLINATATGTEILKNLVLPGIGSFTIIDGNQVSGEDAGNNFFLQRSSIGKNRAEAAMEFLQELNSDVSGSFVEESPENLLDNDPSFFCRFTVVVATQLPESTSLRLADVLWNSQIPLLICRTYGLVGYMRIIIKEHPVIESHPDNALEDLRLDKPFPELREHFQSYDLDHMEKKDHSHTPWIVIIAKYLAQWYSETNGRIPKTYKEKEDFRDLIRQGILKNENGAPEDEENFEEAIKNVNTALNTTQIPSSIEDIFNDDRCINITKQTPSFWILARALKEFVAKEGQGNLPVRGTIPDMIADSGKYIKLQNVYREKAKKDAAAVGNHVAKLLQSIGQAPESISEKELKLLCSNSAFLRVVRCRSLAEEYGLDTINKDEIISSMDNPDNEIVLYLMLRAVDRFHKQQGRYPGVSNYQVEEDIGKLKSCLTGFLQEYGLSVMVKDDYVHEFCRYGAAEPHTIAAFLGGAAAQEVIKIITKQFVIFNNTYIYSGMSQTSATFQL
Put plainly: Nedd8-Activating Enzyme (NAE) HTRF Assay. The assay is classed as biochemical. As to conditions: 20 μM ATP, bound given in nM. In outline: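 Recombinant human NAE (NAEα/His-NAEβ from Sf9 cells) at 0.20 nM with 20 μM ATP, 0.01 μM Ubc12-GST and 0.075 μM Nedd8-Flag in HEPES pH 7.5, 105 min at 24° C. EDTA stop; Eu-anti-FLAG/APC-anti-GST HTRF read after 1 h.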

In the case of `CC1(C)Cc2cccc(-c3nc4c(N[C@@H]5C[C@@H](COS(N)(=O)=O)[C@@H](O)C5)ncnc4[nH]3)c2O1` [Compound I-100, ((1S,2S,4R)-4-{[8-(2,2-dimethyl-2,3-dihydro-1-benzofuran-7-yl)-9H-purin-6-yl]amino}-2-hydroxycyclopentyl)methyl sulfamate], the IC50 is at most 500 nM.
